From US11254668B2, “Pyrazolo[1,5-A]pyrazin-4-yl and related derivatives” (Pfizer Inc., priority 2017, dated 2022)
pIC50: −log10 of the molar value. Where two headings read alike, the source gives them in different places.

How the values were obtained:
Format in all cases: biochemical
TYK2 = TYK2 (Homo sapiens (Human), UniProt P29597); assay: JAK Caliper Enzyme Assay at 1 mM ATP, TYK2
Method in brief: (§1)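 First, compound was incubated at room temperature with recombinant human kinase domain, a synthetic peptide and 1 mM ATP until 20–30% of peptide was phosphorylated. Next, EDTA stopped the reaction. Finally, electrophoretic separation quantified product, and percent effect relative to controls was plotted against concentration.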

JAK1 = JAK1 (Homo sapiens (Human), UniProt P23458); assay: JAK Caliper Enzyme Assay at 1 mM ATP, JAK1
Method in brief: (§2)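 Recombinant human kinase domains phosphorylated a fluorescent synthetic peptide at room temperature, with enzyme level and time tuned to 20% to 30% conversion; EDTA stop buffer ended reactions. Mobility-shift separation gave percent product from peak heights, normalised to DMSO and positive controls, and IC50s came from concentration–effect curves.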

JAK2 = JAK2 (Homo sapiens (Human), UniProt O60674); assay: JAK Caliper Enzyme Assay at 1 mM ATP, JAK2
Method in brief: as §1

JAK3 = JAK3 (Homo sapiens (Human), UniProt P52333); assay: JAK Caliper Enzyme Assay at 1 mM ATP, JAK3
Method in brief: as §2

Sequence of TYK2 (P29597 897-1176): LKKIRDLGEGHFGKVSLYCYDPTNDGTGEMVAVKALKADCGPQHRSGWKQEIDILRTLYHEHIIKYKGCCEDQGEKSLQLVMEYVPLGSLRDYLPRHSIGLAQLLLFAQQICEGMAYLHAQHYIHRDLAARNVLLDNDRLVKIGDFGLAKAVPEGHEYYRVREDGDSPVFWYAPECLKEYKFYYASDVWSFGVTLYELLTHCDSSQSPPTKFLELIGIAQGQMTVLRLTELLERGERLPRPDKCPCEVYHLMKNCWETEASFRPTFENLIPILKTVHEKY
Sequence of JAK3 (P52333 822-1111): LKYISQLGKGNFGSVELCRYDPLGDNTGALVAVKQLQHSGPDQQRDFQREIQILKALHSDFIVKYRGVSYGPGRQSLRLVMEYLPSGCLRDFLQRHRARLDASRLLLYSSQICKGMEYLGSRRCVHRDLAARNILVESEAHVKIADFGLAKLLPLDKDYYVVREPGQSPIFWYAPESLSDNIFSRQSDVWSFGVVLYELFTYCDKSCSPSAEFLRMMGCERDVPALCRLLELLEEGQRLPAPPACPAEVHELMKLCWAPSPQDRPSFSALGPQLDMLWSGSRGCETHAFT
Sequence of JAK1 (P23458 875-1153): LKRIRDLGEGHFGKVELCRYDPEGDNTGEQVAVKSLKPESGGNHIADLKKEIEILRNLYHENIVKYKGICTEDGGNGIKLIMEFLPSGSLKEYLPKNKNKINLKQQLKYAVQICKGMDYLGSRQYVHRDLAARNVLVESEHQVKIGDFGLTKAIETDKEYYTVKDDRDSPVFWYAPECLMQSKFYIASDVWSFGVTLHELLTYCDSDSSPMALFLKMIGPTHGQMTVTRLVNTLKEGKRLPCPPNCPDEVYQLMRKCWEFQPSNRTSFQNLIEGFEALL
Sequence of JAK2 (O60674 849-1124): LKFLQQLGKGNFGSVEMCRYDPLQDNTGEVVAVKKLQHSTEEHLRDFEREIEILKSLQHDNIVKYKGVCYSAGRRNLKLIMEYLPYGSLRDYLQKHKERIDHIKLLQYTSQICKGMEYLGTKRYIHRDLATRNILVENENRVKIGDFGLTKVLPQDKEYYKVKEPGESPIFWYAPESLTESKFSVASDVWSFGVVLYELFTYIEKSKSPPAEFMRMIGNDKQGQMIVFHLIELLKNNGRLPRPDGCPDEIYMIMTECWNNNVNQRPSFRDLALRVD

| Structure (SMILES) | pIC50 (TYK2; JAK Caliper enzyme assay) | pIC50 (JAK1; JAK Caliper enzyme assay) | pIC50 (JAK2; JAK Caliper enzyme assay) | pIC50 (JAK3; JAK Caliper enzyme assay) | pIC50 (TYK2) | pIC50 (JAK1) | pIC50 (JAK2) | pIC50 (JAK3) |
| --- | --- | --- | --- | --- | --- | --- | --- | --- |
| Cc1cc(-c2cc(-c3cnn([C@]4(CC#N)C[C@@H](C#N)C4)c3)n3ccnc3c2)[nH]n1 [Example 461, trans-3-(cyanomethyl)-3-{4-[7-(3-methyl-1H-pyrazol-5-yl)imidazo[1,2-a]pyridin-5-yl]-1H-pyrazol-1-yl}cyclobutanecarbonitrile] | 7.70 | 5.81 | 6.41 | < 5.00 |  |  |  |  |
| CCN1CC(CC#N)(n2ccc(-c3nc(-c4cc(CO)[nH]n4)cc4ncccc34)n2)C1 [Example 47, [1-ethyl-3-(3-{7-[5-(hydroxymethyl)-1H-pyrazol-3-yl]-1,6-naphthyridin-5-yl}-1H-pyrazol-1-yl)azetidin-3-yl]acetonitrile] |  |  |  |  | 6.60 | 5.11 | 5.71 | < 5.00 |
| N#CC[C@]1(n2ncc(-c3cc(-c4nc(CO)cs4)cc4ncccc34)n2)C[C@H](C#N)C1 [Example 341, trans-3-(cyanomethyl)-3-(4-{7-[4-(hydroxymethyl)-1,3-thiazol-2-yl]quinolin-5-yl}-2H-1,2,3-triazol-2-yl)cyclobutanecarbonitrile] |  |  |  |  | 7.24 | 5.49 | 6.19 | < 5.00 |
| Cn1cc(-c2cc3ncccc3c(-c3ccn(C4(CC#N)CN(S(=O)(=O)C5CC5)C4)n3)n2)cn1 [Example 107, [1-(cyclopropylsulfonyl)-3-{3-[7-(1-methyl-1H-pyrazol-4-yl)-1,6-naphthyridin-5-yl]-1H-pyrazol-1-yl}azetidin-3-yl]acetonitrile] |  |  |  |  | 7.62 | 6.00 | 6.61 | < 5.00 |
| N#CC[C@]1(n2ncc(-c3cc(-c4cccc5c4NC(=O)C5)cc4ncccc34)n2)C[C@@H](C#N)C1 [Example 449, cis-3-(cyanomethyl)-3-{4-[7-(2-oxo-2,3-dihydro-1H-indol-7-yl)quinolin-5-yl]-2H-1,2,3-triazol-2-yl}cyclobutanecarbonitrile] | 6.43 | < 5.00 | 5.19 | < 5.00 |  |  |  |  |
| N#CCC1(n2ccc(-c3nc(-c4cnc5c(c4)CCC5)cc4ncccc34)n2)CN(CC(F)(F)F)C1 [Example 232] |  |  |  |  | 5.82 | < 5.00 | 5.24 | < 5.00 |
| COc1nc(-c2cc(-c3cnn([C@]4(CC#N)C[C@@H](C#N)C4)n3)c3cccnc3c2)ccc1N [Example 384, trans-3-{4-[7-(5-amino-6-methontpyridin-2-yl)quinolin-5-yl]-2H-1,2,3-triazol-2-yl}-3-(cyanomethyl)cyclobutanecarbonitrile] | 7.48 | 6.11 | 6.59 | < 5.00 |  |  |  |  |
| CS(=O)(=O)N1CC(CC#N)(n2ccc(-c3nc(-c4ccc(S(N)(=O)=O)nc4)cc4ncccc34)n2)C1 [Example 209, 5-(5-{1-[3-(cyanomethyl)-1-(methylsulfonyl)azetidin-3-yl]-1H-pyrazol-3-yl}-1,6-naphthyridin-7-yl)pyridine-2-sulfonamide] |  |  |  |  | 7.29 | 5.71 | 6.36 | < 5.00 |
| N#CC[C@]1(n2ccc(-c3nc(-c4cnnc(N)c4)cc4ncccc34)n2)C[C@@H](C#N)C1 [Example 240, cis-3-{3-[7-(6-aminopyridazin-4-yl)-1,6-naphthyridin-5-yl]-1H-pyrazol-1-yl}-3-(cyanomethyl)cyclobutanecarbonitrile] |  |  |  |  | 7.32 | 5.89 | 6.35 | < 5.00 |
| N#CCC1(n2ncc(-c3cc(-c4scnc4CO)cc4ncccc34)n2)CC(C#N)C1 (stereo not drawn) [Example 344, trans-3-(cyanomethyl)-3-(4-{7-[4-(hydroxymethyl)-1,3-thiazol-5-yl]quinolin-5-yl}-2H-1,2,3-triazol-2-yl)cyclobutanecarbonitrile] |  |  |  |  | 6.11 | < 5.00 | < 5.00 | < 5.00 |
| N#CCC1(n2ccc(-c3nc(-c4cncc(F)c4)cc4ncccc34)n2)CN(CC(F)(F)F)C1 [Example 178, [3-{3-[7-(5-fluoropyridin-3-yl)-1,6-naphthyridin-5-yl]-1H-pyrazol-1-yl}-1-(2,2,2-trifluoroethyl)azetidin-3-yl]acetonitrile] |  |  |  |  | 5.86 | < 5.00 | 5.17 | < 5.00 |
| Cn1cc(-c2cc(-c3cn(C4(CC#N)CN(S(C)(=O)=O)C4)nn3)c3cccnc3c2)cn1 [Example 294, [3-{4-[7-(1-methyl-1H-pyrazol-4-yl)quinolin-5-yl]-1H-1,2,3-triazol-1-yl}-1-(methylsulfonyl)azetidin-3-yl]acetonitrile] |  |  |  |  | 6.57 | 5.87 | 6.82 | < 5.00 |
| Cc1cc(-c2nc(-c3cn[nH]c3)cc3ncccc23)nn1[C@]1(CC#N)C[C@H](C#N)C1 [Example 274, cis-3-(cyanomethyl)-3-{5-methyl-3-[7-(1H-pyrazol-4-yl)-1,6-naphthyridin-5-yl]-1H-pyrazol-1-yl}cyclobutanecarbonitrile] |  |  |  |  | 8.05 | 7.22 | 7.47 | 5.47 |
| Cc1nc2ccc(-c3cc(-c4cnn([C@]5(CC#N)C[C@H](C#N)C5)n4)c4cccnc4c3)nc2[nH]1 [Example 424, cis-3-(cyanomethyl)-3-{4-[7-(2-methyl-3H-imidazo[4,5-b]pyridin-5-yl)quinolin-5-yl]-2H-1,2,3-triazol-2-yl}cyclobutanecarbonitrile] | 7.64 | 6.14 | 7.09 | 5.03 |  |  |  |  |
| Cn1cc(-c2cc3nccnc3c(-c3cnn(C4(CC#N)CN(CC#N)C4)c3)n2)cn1 [Example 480, 2,2′-(3-{4-[7-(1-methyl-1H-pyrazol-4-yl)pyrido[3,4-b]pyrazin-5-yl]-1H-pyrazol-1-yl}azetidine-1,3-diyl)diacetonitrile] | 7.96 | 6.84 | 7.77 | 5.43 |  |  |  |  |
| CS(=O)(=O)Nc1cncc(-c2cc3ncccc3c(-c3ccn(C4(CC#N)CN(S(C)(=O)=O)C4)n3)n2)c1 [Example 204, N-[5-(5-{1-[3-(cyanomethyl)-1-(methylsulfonyl)azetidin-3-yl]-1H-pyrazol-3-yl}-1,6-naphthyridin-7-yl)pyridin-3-yl]methanesulfonamide] |  |  |  |  | 6.10 | < 5.00 | 5.17 | < 5.00 |
| Cc1n[nH]cc1-c1cc2ncccc2c(-c2ccn(C3(CC#N)CN(S(C)(=O)=O)C3)n2)n1 [Example 88, [3-{3-[7-(3-methyl-1H-pyrazol-4-yl)-1,6-naphthyridin-5-yl]-1H-pyrazol-1-yl}-1-(methylsulfonyl)azetidin-3-yl]acetonitrile] |  |  |  |  | 7.22 | 5.79 | 6.06 | < 5.00 |
| CNC(=O)C1CC(CC#N)(n2ccc(-c3nc(-c4cc[nH]n4)cc4ncccc34)n2)C1 (stereo not drawn) [Example 26, cis-3-(cyanomethyl)-N-methyl-3-{3-[7-(1H-pyrazol-3-yl)-1,6-naphthyridin-5-yl]-1H-pyrazol-1-yl}cyclobutanecarboxamide] |  |  |  |  | 5.83 | 5.22 | 5.41 | < 5.00 |
| N#CC[C@]1(n2ncc(-c3cc(-c4ccnc(N)c4)cc4ncccc34)n2)C[C@H](C#N)C1 [Example 367, trans-3-{4-[7-(2-aminopyridin-4-yl)quinolin-5-yl]-2H-1,2,3-triazol-2-yl}-3-(cyanomethyl)cyclobutanecarbonitrile] |  |  |  |  | 7.03 | 5.55 | 5.89 | < 5.00 |
| Cc1ccc(-c2cc3ncccc3c(-c3ccn(C4(CC#N)CN(S(C)(=O)=O)C4)n3)n2)c(N)n1 [Example 218, [3-{3-[7-(2-amino-6-methylpyridin-3-yl)-1,6-naphthyridin-5-yl]-1H-pyrazol-1-yl}-1-(methylsulfonyl)azetidin-3-yl]acetonitrile] |  |  |  |  | 7.42 | 5.57 | 6.25 | < 5.00 |
| N#CC[C@]1(n2ncc(-c3cc(-c4cncc(N)n4)cc4ncccc34)n2)C[C@@H](C#N)C1 [Example 396, cis-3-{4-[7-(6-aminopyrazin-2-yl)quinolin-5-yl]-2H-1,2,3-triazol-2-yl}-3-(cyanomethyl)cyclobutanecarbonitrile] | 6.30 | 5.48 | 5.83 | < 5.00 |  |  |  |  |
| CO[C@H]1C[C@](CC#N)(n2cc(-c3nc(-c4cc(CO)n[nH]4)cc4ncccc34)cn2)C1 [Example 13, [trans-1-(4-{7-[3-(hydroxymethyl)-1H-pyrazol-5-yl]-1,6-naphthyridin-5-yl}-1H-pyrazol-1-yl)-3-methoxycyclobutyl]acetonitrile] |  |  |  |  | 7.38 | 6.58 | 7.09 | < 5.00 |
| N#CCC1(n2ncc(-c3cc(-c4cc(N)[nH]n4)cc4ncccc34)n2)CC(C#N)C1 (stereo not drawn) [Example 306, trans-3-{4-[7-(5-amino-1H-pyrazol-3-yl)quinolin-5-yl]-2H-1,2,3-triazol-2-yl}-3-(cyanomethyl)cyclobutanecarbonitrile] |  |  |  |  | 7.85 | 6.59 | 6.76 | 5.04 |
| Cn1nncc1-c1cc(-c2cnn([C@]3(CC#N)C[C@H](C#N)C3)n2)c2cccnc2c1 [Example 338, cis-3-(cyanomethyl)-3-{4-[7-(1-methyl-1H-1,2,3-triazol-5-yl)quinolin-5-yl]-2H-1,2,3-triazol-2-yl}cyclobutanecarbonitrile] |  |  |  |  | 5.61 | < 5.00 | < 5.00 | < 5.00 |
